Assay results published in PMC11227190, “Interaction mechanism of oseltamivir phosphate with bovine serum albumin: multispectroscopic and molecular docking study” (BMC Chemistry, 2024).

Target: T1, bovine serum albumin (BSA) (Bos taurus, UniProt P02769)
T1 construct: gene ALB
Experiment: intrinsic fluorescence quenching (double-log Stern-Volmer, binding constant K at […] K); supported by UV absorption, CD and warfarin probe displacement
Conditions: read-out: K (10^4 L.mol^- 1) (converted)

T1 sequence (P02769 25-607): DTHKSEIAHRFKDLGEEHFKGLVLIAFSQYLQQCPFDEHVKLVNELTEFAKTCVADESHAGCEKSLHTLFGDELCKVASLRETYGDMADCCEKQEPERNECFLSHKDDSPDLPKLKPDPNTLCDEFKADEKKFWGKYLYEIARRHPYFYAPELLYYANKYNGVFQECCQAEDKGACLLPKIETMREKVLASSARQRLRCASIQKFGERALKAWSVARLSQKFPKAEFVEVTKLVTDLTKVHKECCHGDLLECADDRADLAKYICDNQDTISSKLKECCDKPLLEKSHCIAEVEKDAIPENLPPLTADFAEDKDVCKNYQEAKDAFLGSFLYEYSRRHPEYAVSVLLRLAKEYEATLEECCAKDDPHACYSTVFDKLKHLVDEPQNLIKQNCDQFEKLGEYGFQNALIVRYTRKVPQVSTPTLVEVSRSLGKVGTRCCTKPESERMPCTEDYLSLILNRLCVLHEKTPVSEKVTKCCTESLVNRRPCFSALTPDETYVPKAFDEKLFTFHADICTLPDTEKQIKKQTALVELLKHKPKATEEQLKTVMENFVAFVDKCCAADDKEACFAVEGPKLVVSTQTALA

- Kd: 47.8 µM
SMILES: CCOC(=O)C1=C[C@@H](OC(CC)CC)[C@H](NC(C)=O)[C@@H](N)C1 [OP, (3R,4R,5 S)-4-acetamido-5-amino-3-(1-ethylepoxy)-1-cyclohexene-1-carboxylic acid ethyl ester phosphate]
